Experimental data published in US10077243B2, “Compounds for treating disorders mediated by metabotropic glutamate receptor 5, and methods of use thereof” (Sunovion Pharmaceuticals Inc., priority 2009, dated 2018).

Molecular target: T1, human mGluR5 (Homo sapiens, UniProt P41594)
T1 construct: expressed in transfected cells; host or cells: HEK293 cells stably expressing rat GLAST (EAAT1), stably transfected with pcDNAzeo3.1 carrying synthetic human mGluR5 DNA; zeocin-selected single clones
Assay: In vitro cell-based FLIPR calcium assay for positive modulation of the activation of mGluR5 by glutamate (PAM EC50)
Conditions: HEK293/GLAST cells expressing recombinant human mGluR5; FLIPR calcium signal; glutamate added at its EC20; read-out: mGluR5 PAM EC50
Procedure, shortened: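 PAM activity was measured as FLIPR calcium fluorescence in the presence of an EC20 glutamate concentration determined daily from a glutamate concentration-response curve. Cells were HEK293/GLAST clones expressing mGluR5, dye-loaded at 25 °C for 45–60 min in HEPES-buffered HBSS; vehicle control was 0.3% DMSO.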

T1 sequence (P41594 21-1212): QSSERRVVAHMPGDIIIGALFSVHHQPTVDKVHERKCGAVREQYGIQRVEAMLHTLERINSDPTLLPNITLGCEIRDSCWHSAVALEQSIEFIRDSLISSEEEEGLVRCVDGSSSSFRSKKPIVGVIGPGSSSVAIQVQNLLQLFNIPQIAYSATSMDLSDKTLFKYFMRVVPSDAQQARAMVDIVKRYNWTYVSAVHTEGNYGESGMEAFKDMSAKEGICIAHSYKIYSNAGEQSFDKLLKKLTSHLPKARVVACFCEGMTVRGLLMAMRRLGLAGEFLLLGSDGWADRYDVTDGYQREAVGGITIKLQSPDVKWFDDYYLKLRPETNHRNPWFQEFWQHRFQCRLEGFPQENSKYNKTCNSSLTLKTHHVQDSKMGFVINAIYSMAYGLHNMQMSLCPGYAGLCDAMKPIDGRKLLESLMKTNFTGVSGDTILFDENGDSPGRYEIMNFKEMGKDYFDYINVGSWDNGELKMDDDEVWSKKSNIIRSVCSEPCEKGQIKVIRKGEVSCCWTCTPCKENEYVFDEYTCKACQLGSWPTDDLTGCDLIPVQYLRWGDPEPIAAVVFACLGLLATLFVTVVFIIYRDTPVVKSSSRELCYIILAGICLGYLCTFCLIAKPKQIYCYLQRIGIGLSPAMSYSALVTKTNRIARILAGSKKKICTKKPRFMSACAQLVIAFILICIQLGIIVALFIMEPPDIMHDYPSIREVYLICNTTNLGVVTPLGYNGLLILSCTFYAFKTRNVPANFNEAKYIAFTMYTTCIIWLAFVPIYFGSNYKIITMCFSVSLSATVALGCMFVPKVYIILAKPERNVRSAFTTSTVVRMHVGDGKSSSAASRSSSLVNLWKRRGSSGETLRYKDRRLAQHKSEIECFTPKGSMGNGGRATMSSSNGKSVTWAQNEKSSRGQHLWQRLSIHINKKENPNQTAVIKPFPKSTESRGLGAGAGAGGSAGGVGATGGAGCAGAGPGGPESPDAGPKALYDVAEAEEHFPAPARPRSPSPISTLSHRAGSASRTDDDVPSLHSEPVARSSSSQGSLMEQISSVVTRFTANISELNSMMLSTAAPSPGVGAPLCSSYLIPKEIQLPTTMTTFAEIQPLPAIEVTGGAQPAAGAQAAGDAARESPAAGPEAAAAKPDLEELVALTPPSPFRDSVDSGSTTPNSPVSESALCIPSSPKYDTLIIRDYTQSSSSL

CCC1CCCc2nc3cc(C#Cc4ccccn4)ccc3c(=O)n21 (stereo not shown) [Example 4.19, 9-ethyl-3-(pyridin-2-ylethynyl)-8,9-dihydro-6H-pyrido[2,1-b]quinazolin-11(7H)-one]
EC50: 0.01 to 0.03 µM

O=c1[nH]ccc2cc(C#Cc3cccc(F)c3)ccc12 [Example 18.1, 6-((3-fluorophenyl)ethynyl)isoquinolin-1(2H)-one]
EC50: 0.3 to 1 µM

CCOCCc1cnc2cc(C#Cc3cccc(F)c3)ccn2c1=O [Example 13.13, 3-(2-ethoxyethyl)-8-((3-fluorophenyl)ethynyl)-4H-pyrido[1,2-a]pyrimidin-4-one]
EC50: 0.03 to 0.1 µM

COCC1CCc2nc3cc(C#Cc4cccc(F)c4)ccc3c(=O)n21 (stereo not shown) [Example 3.6, 6-((3-fluorophenyl)ethynyl)-1-(methoxymethyl)-2,3-dihydropyrrolo[2,1-b]quinazolin-9(1H)-one]
EC50: < 0.01 µM

Cc1cccc(C#Cc2ccc3c(=O)n4c(nc3c2)CCC2(CC4)OCCO2)n1 [Example 7.46]
EC50: 0.1 to 0.3 µM

O=c1c2ccc(C#Cc3cccc(F)c3)cc2nc2n1C(CO)CC2 (stereo not shown) [Example 3.5, 6-((3-fluorophenyl)ethynyl)-1-(hydroxymethyl)-2,3-dihydropyrrolo[2,1-b]quinazolin-9(1H)-one]
EC50: 0.03 to 0.1 µM

COC1CCc2nc3cc(C#Cc4ccccn4)ccc3c(=O)n2C1 (stereo not shown) [Example 4.26, 8-methoxy-3-(pyridin-2-ylethynyl)-8,9-dihydro-6H-pyrido[2,1-b]quinazolin-11(7H)-one]
EC50: 0.03 to 0.1 µM

CC1CCCCn2c1nc1cc(C#Cc3ccccn3)ccc1c2=O (stereo not shown) [Example 6.35, 6-methyl-3-(pyridin-2-ylethynyl)-7,8,9,10-tetrahydroazepino[2,1-b]quinazolin-12(6H)-one]
EC50: 0.01 to 0.03 µM

O=c1c2ccc(C#Cc3ccc(F)cc3)cc2ncn1CC1CCCO1 (stereo not shown) [Example 1.13, 7-((4-fluorophenyl)ethynyl)-3-((tetrahydrofuran-2-yl)methyl)quinazolin-4(3H)-one]
EC50: 0.03 to 0.1 µM

CC(C)Cn1cnc2cc(C#Cc3cccc(F)c3)ccc2c1=O [Example 1.20, 7-((3-fluorophenyl)ethynyl)-3-isobutylquinazolin-4(3H)-one]
EC50: 0.03 to 0.1 µM

O=c1c2c(nc3cc(C#Cc4ccncc4)ccn13)CCCCC2 [Example 16.5, 3-(pyridin-4-ylethynyl)-7,8,9,10-tetrahydrocyclohepta[d]pyrido[1,2-a]pyrimidin-11(6H)-one]
EC50: < 0.01 µM

O=C1CCc2nc3cc(C#Cc4cccc(F)c4)ccc3c(=O)n2CC1 [Example 6.14, 3-((3-fluorophenyl)ethynyl)-6,7,9,10-tetrahydroazepino[2,1-b]quinazoline-8,12-dione]
EC50: 0.01 to 0.03 µM

O=c1c2ccc(C#Cc3ccc(F)cc3)cc2ncn1CC1CCCO1 (single isomer, unassigned) [1.15/1.16 slower moving enantiomer (fraction 2), 7-((4-fluorophenyl)ethynyl)-3-((tetrahydrofuran-2-yl)methyl)quinazolin-4(3H)-one]
EC50: 0.1 to 0.3 µM

O=c1c2ccc(C#Cc3ccccn3)cc2nc2n1C[C@@H]1CCCN1C2 [Example 5.23, (S)-8-(pyridin-2-ylethynyl)-2,3,13,13a-tetrahydro-1H-pyrrolo[1′,2′:4,5]pyrazino[2,1-b]quinazolin-11(5H)-one]
EC50: 0.03 to 0.1 µM

O=c1c2ccc(C#Cc3ccc(F)c(F)c3)cc2nc2n1CCC1(CC2)OCCO1 [Example 7.5]
EC50: 0.1 to 0.3 µM

O=c1c2ccc(C#Cc3cccc(F)c3)cc2ncn1CC1CC1 [Example 1.8, 3-(cyclopropylmethyl)-7-((3-fluorophenyl)ethynyl) quinazolin-4(3H)-one]
EC50: 0.03 to 0.1 µM

N#Cc1cccc(C#Cc2ccc3c(=O)n4c(nc3c2)CCCCC4)n1 [Example 6.45]
EC50: 0.01 to 0.03 µM

CC1CCc2nc3cc(C#Cc4ccccn4)cnc3c(=O)n2CC1 (single isomer, unassigned) [11.9a/11.9b slower moving enantiomer (fraction 2), 8-methyl-3-(pyridin-2-ylethynyl)-7,8,9,10-tetrahydropyrido[3′,2′:4,5]pyrimido[1,2-a]azepin-12(6H)-one]
EC50: 0.01 to 0.03 µM

Cn1c(C2CCCO2)nc2cc(C#Cc3cccc(F)c3)ccc2c1=O (stereo not shown) [Example 2.3, 7-((3-fluorophenyl)ethynyl)-3-methyl-2-(tetrahydrofuran-2-yl)quinazolin-4(3H)-one]
EC50: 0.3 to 1 µM

CN1CCCn2c(nc3cc(C#Cc4ccc(F)cc4)ccc3c2=O)CC1 [Example 10.1, 11-((4-fluorophenyl)ethynyl)-3-methyl-3,4,5,6-tetrahydro-1H-[1,5]diazocino[2,1-b]quinazolin-8(2H)-one]
EC50: 0.01 to 0.03 µM

O=c1c2ccc(C#Cc3cccc(F)c3)cc2nc2n1CCN(C1CCC1)CC2 [Example 8.11, 3-cyclobutyl-8-((3-fluorophenyl)ethynyl)-2,3,4,5-tetrahydro-[1,4]diazepino[7,1-b]quinazolin-11(1H)-one]
EC50: 0.3 to 1 µM

O=CN1CCc2nc3cc(C#Cc4cccc(F)c4)ccc3c(=O)n2CC1 [Example 8.18, 8-((3-fluorophenyl)ethynyl)-11-oxo-1,2,4,5-tetrahydro-[1,4]diazepino[7,1-b]quinazoline-3(11H)-carbaldehyde]
EC50: 0.03 to 0.1 µM

O=c1[nH]cnc2cc(C#Cc3cccc(F)c3)ccc12 [Example 1.2, 7-((3-fluorophenyl)ethynyl)quinazolin-4(3H)-one]
EC50: 0.3 to 1 µM

O=c1c2ccc(C#Cc3cccc(F)c3)cc2nc2n1CCC1(CCCO1)CC2 (stereo not shown) [Example 6.26, 3-((3-fluorophenyl)ethynyl)-4′,5′,9,10-tetrahydro-3′H,6H-spiro[azepino[2,1-b]quinazoline-8,2′-furan]-12(7H)-one]
EC50: 0.01 to 0.03 µM

CC(C)N1CCc2nc3cc(C#Cc4ccc(F)cc4)ccc3c(=O)n2CC1 [Example 8.3, 8-((4-fluorophenyl)ethynyl)-3-isopropyl-2,3,4,5-tetrahydro-[1,4]diazepino[7,1-b]quinazolin-11(1H)-one]
EC50: 0.1 to 0.3 µM

CC1(C)Cn2c(nc3cc(C#Cc4ccccn4)ccc3c2=O)C(F)(F)C1 [Example 4.44, 6,6-difluoro-8,8-dimethyl-3-(pyridin-2-ylethynyl)-8,9-dihydro-6H-pyrido[2,1-b]quinazolin-11(7H)-one]
EC50: < 0.01 µM

O=c1c2ccc(C#Cc3cccc(F)c3)cc2nc2n1CC(O)CC2 (stereo not shown) [Example 4.23, 3-((3-fluorophenyl)ethynyl)-8-hydroxy-8,9-dihydro-6H-pyrido[2,1-b]quinazolin-11(7H)-one]
EC50: 0.03 to 0.1 µM

CC1(C)CCCn2c(nc3cc(C#Cc4ccccn4)ccc3c2=O)C1 [Example 6.37, 7,7-dimethyl-3-(pyridin-2-ylethynyl)-7,8,9,10-tetrahydroazepino[2,1-b]quinazolin-12(6H)-one]
EC50: < 0.01 µM

COCc1cnc2cc(C#Cc3cccc(F)c3)ccn2c1=O [Example 13.7, 8-((3-fluorophenyl)ethynyl)-3-(methoxymethyl)-4H-pyrido[1,2-a]pyrimidin-4-one]
EC50: 0.03 to 0.1 µM

CC1Cn2c(nc3cc(C#Cc4ccccn4)ccc3c2=O)CN1C (stereo not shown) [Example 5.14, 2,3-dimethyl-9-(pyridin-2-ylethynyl)-3,4-dihydro-1H-pyrazino[2,1-b]quinazolin-6(2H)-one]
EC50: 0.03 to 0.1 µM

O=c1c2ccc(C#Cc3ccccn3)cc2nc2n1CCC(F)CC2 (stereo not shown) [Example 6.46, 8-fluoro-3-(pyridin-2-ylethynyl)-7,8,9,10-tetrahydroazepino[2,1-b]quinazolin-12(6H)-one]
EC50: < 0.01 µM
